Source: patent US11964969B2, “Crystal forms of thiazole compound and application thereof” (PHAENO THERAPEUTICS CO., LTD, priority 2018, dated 2024)

How the values were obtained:
[1] = Evaluation of pharmacokinetics of the compound in mice; type: in vivo; details: male, mouse, plasma, Balb/c mice
Procedure: Assay Example 2: Evaluation of Pharmacokinetics of the Compound
Object of the assay: to test the pharmacokinetics of the compound in mice in vivo.
Balb/c mice (male, 18-22 g, 6-8 weeks old, from Shanghai SLAC)
The pharmacokinetic profile of the compound after intravenous injection and oral administration in the rodents was tested by the standard protocol. The candidate compound was formulated into a corresponding solution, and administered through a single intravenous injection (1.0 mg/kg, 5% of DMSO/95% of 20% hydroxypropyl-beta-cyclodextrin) or an intragastric administration (1.0 mg/kg, 0.5% of methylcellulose MC4000). The whole blood sample was collected within 24 hours, and centrifuged at 3000 g for 15 minutes. […] The resulting mixture was centrifuged and the supernatant was taken out, to which an equal volume of water was added and centrifuged. The supernatant was taken out, and injected as a sample to quantitatively analyze the plasma drug concentration by LC-MS/MS analysis method. The pharmacokinetic parameters were calculated, such as peak concentration, peak time, clearance rate, half-life, area under the drug-time curve, bioavailability, etc.

[2] = tested on: GHSV-UL 46 strain of herpes simplex virus-1 (HSV-1); assay: Assay of cytopathic effect (CPE) of herpes simplex virus-1 in Vero E6 cells; type: cell-based; details: Human alphaherpesvirus 1, Vero C1008, 120 h, read-out: HSV-1 Cytopathic Assay EC50
Procedure: Assay Example 1: Assay of Cytopathic Effect of Herpes Simplex Virus-1 (Evaluation In Vitro)
The assay of cytopathic effect (CPE) was used to determine the antiviral activity of the compound against the GHSV-UL 46 strain of herpes simplex virus-1 (HSV-1).
Virus: HSV-1 GHSV-UL46, ATCC #VR-1544
Cell: African green monkey kidney cell, Vero E6, donated by Wuhan Instititute of Virology, Chinese Academy of Sciences.
Cell growth medium: 500 ml of DMEM medium+50 ml of fetal bovine serum+5 ml of double antibody+5 ml of non-essential amino acids.
Medium for the assay of cytopathic effect: 500 ml of DMEM medium+10 ml of fetal bovine serum+5 ml of double antibody+5 ml of non-essential amino acids.
1.4. […]
2.2. […] Each test compound was measured at 8 concentrations in duplicate. […]
3.4. The absorbance value of each well of the cell plate was read with a microplate reader at a wavelength of 450 nm, and 630 nm was used as a reference wavelength. The value of raw data was the absorbance at 450 nm minus the absorbance at 630 nm (raw data=OD450−OD630).
4.1. The antiviral activity of the test compound (% Inhibition) was calculated using the following equation:
[formula] wherein sample is the absorbance value of compound test wells, cell control is the average absorbance value of cell control wells, and virus control is the average absorbance value of virus control wells. […]

[3] = Hygroscopicity study by dynamic vapor sorption (DVS); type: physicochemical; details: 25° C. and 80% RH
Procedure: Dynamic Vapor Sorption (DVS) Method Used in the Present Disclosure
Instrument model: SMS DVS Advantage dynamic vapor sorption apparatus
Test condition: The sample (10˜15 mg) was taken and put into a DVS sample pan for testing.
The detailed DVS parameters were as follows:
Equilibration: dm/dt=0.01%/min (The shortest time: 10 min, and the longest time: 180 min)
Drying: Dried for 120 min at 0% RH
RH (%) test gradient: 10%
Range of RH (%) test gradient: 0%-90%-0%
The classification of hygroscopicity evaluation was as follows:
Example 4: Study on the Hygroscopicity of the Crystal Form B of the Compound of Formula (II)
SMS DVS Advantage dynamic vapor sorption apparatus
10-15 mg of the crystal form B of the compound of formula (II) was taken and put into a DVS sample pan for testing.

| Structure (SMILES) | bioavailability ([1]; intragastric (oral) administration 1.0 mg/kg, read-out: Bioavailability F) | AUC ([1]; intragastric (oral) administration 1.0 mg/kg, read-out: Concentration integral AUC) | clearance ([1]; single intravenous injection 1.0 mg/kg, read-out: Clearance rate) | half-life ([1]; single intravenous injection 1.0 mg/kg, read-out: Half-life T1/2 (converted)) | EC50 [2] | Classification of hygroscopicity [3] | Weight increase by moisture absorption ΔW [3] |
| --- | --- | --- | --- | --- | --- | --- | --- |
| Cc1nc(N(C)C(=O)[C@@H]2Cc3ccc(-c4ccccn4)cc3C2)sc1S(N)(=O)=O [Compound of formula (I)] | 75% | 24.4 µM·h | 1.2 mL/min/kg | 6 h | 7 nM |  |  |
| CS(=O)(=O)O.Cc1nc(N(C)C(=O)[C@@H]2Cc3ccc(-c4ccccn4)cc3C2)sc1S(N)(=O)=O |  |  |  |  |  | slightly hygroscopic | 1.158% |
